Measured values: patent publication US20230085307A1, “PYRIDAZINONE COMPOUND AND HERBICIDE” (NISSAN CHEMICAL CORPORATION, priority 2019, published 2023)

Columns and labels:
[1] = system: wild oat; assay: Test Example 5: herbicidal effect by foliage application, plastic box (Table 20, symbol I); assay type: in vivo, wild oat (Avena fatua); details: foliage application, 3 weeks after application
Summary of the method: (§1)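 Sow seeds spot-wise in sterilized diluvial soil; cover with ~1.5 cm soil. Grow 14 days in greenhouse, 25° C. to 30° C. Spray foliage with emulsion diluted to predetermined amount. Rate effect after 3 weeks.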

[2] = system: Japanese bulrush; assay: Test Example 1: herbicidal activity, application before weed generation under submerged conditions (Table 16, symbol B); assay type: in vivo, Japanese bulrush (Schoenoplectus juncoides)
Summary of the method: (§2)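 Submerged Wagner pots (alluvial soil, 4 cm water) sown with weed seeds and planted with 2.5-leaf rice seedlings; emulsifiable concentrate diluted in water applied to water surface on sowing day. Held in greenhouse at 25-30 °C; injury scored 0-5 by herbicidal rate after three weeks.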

[3] = system: barnyard grass; assay: Test Example 5: herbicidal effect by foliage application, plastic box (Table 20, symbol H); assay type: in vivo, barnyard grass (Echinochloa crus-galli); details: foliage application, 3 weeks after application
Summary of the method: as §1

[4] = system: redroot pigweed; assay: Test Example 4: herbicidal effect by soil treatment (Table 19, symbol N); assay type: in vivo, redroot pigweed (Amaranthus retroflexus); details: for herbicidal effect rating, N: redroot pigweed: 320 g/ha
Summary of the method: (§3)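 Applied as a water-diluted emulsion, the compound was sprayed onto soil covering newly sown seeds. Evaluation came three weeks after application, in a greenhouse held at 25° C. to 30° C.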

[5] = system: chickweed; assay: Test Example 4: herbicidal effect by soil treatment (Table 19, symbol P); assay type: in vivo, common chickweed (Stellaria media); details: for herbicidal effect rating, P: chickweed: 320 g/ha
Summary of the method: as §3

[6] = system: windgrass; assay: Test Example 5: herbicidal effect by foliage application, plastic box (Table 20, symbol L); assay type: in vivo, windgrass (Apera spica-venti); details: foliage application, 3 weeks after application
Summary of the method: as §1

[7] = system: southern crabgrass; assay: Test Example 5: herbicidal effect by foliage application, plastic box (Table 20, symbol F); assay type: in vivo, southern crabgrass (Digitaria ciliaris); details: foliage application, 3 weeks after application
Summary of the method: as §1

[8] = system: wild oat; assay: Test Example 4: herbicidal effect by soil treatment (Table 19, symbol I); assay type: in vivo, wild oat (Avena fatua); details: for herbicidal effect rating, I: wild oat: 320 g/ha
Summary of the method: as §3

[9] = system: oval-leafed pondweed; assay: Test Example 1: herbicidal activity, application before weed generation under submerged conditions (Table 16, symbol C); assay type: in vivo, oval-leafed pondweed (Monochoria vaginalis)
Summary of the method: as §2

[10] = system: green foxtail; assay: Test Example 4: herbicidal effect by soil treatment (Table 19, symbol G); assay type: in vivo, green foxtail (Setaria viridis); details: for herbicidal effect rating, G: green foxtail: 320 g/ha
Summary of the method: as §3

[11] = system: oval-leafed pondweed; assay: Test Example 2: herbicidal activity, application during weed generation under submerged conditions (Table 17, symbol C); assay type: in vivo, oval-leafed pondweed (Monochoria vaginalis); details: application during weed generation, submerged conditions
Summary of the method: (§4)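 Herbicide emulsion, diluted with water to the chosen amount, is applied onto 4 cm floodwater over alluvial soil where the weeds were co-sown and raised at 25–30° C. Application timing: 1–2 leaves. Assessment: three weeks afterwards.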

[12] = system: barnyard grass; assay: Test Example 4: herbicidal effect by soil treatment (Table 19, symbol H); assay type: in vivo, barnyard grass (Echinochloa crus-galli); details: for herbicidal effect rating, H: barnyard grass: 320 g/ha
Summary of the method: as §3

[13] = system: green foxtail; assay: Test Example 5: herbicidal effect by foliage application, plastic box (Table 20, symbol G); assay type: in vivo, green foxtail (Setaria viridis); details: foliage application, 3 weeks after application
Summary of the method: as §1

[14] = system: persian speedwell; assay: Test Example 5: herbicidal effect by foliage application, plastic box (Table 20, symbol R); assay type: in vivo, Persian speedwell (Veronica persica); details: foliage application, 3 weeks after application
Summary of the method: as §1

[15] = system: Japanese bulrush; assay: Test Example 2: herbicidal activity, application during weed generation under submerged conditions (Table 17, symbol B); assay type: in vivo, Japanese bulrush (Schoenoplectus juncoides); details: application during weed generation, submerged conditions
Summary of the method: as §4

Structure (SMILES)	effect on wild oat (I) ([1]; 320 g/ha)	Herbicidal effect on B: Japanese bulrush (grade 0-5) ([2]; 320 g/ha applied herbicide)	effect on barnyard grass (H) ([3]; 320 g/ha)	effect on windgrass (L) ([6]; 320 g/ha)	effect on southern crabgrass (F) ([7]; 320 g/ha)	Herbicidal effect on C: oval-leafed pondweed (grade 0-5) ([9]; 320 g/ha applied herbicide)	herbicidal effect rating, C: oval-leafed pondweed ([11]; AAH 320 g/ha)	effect on green foxtail (G) ([13]; 320 g/ha)	effect on persian speedwell (R) ([14]; 320 g/ha)	herbicidal effect rating, B: Japanese bulrush ([15]; AAH 320 g/ha)	herbicidal effect rating, N: redroot pigweed [4]	herbicidal effect rating, P: chickweed [5]	herbicidal effect rating, I: wild oat [8]	herbicidal effect rating, G: green foxtail [10]	herbicidal effect rating, H: barnyard grass [12]	also measured
Cc1nn(C)c(=O)c(-c2c(-c3ccc(OCCC4OCCO4)cc3)sc3ccccc23)c1O [1-223]																effect on wild oat (I) ([1]; 246 g/ha): 3 (Herbicidal rate of 40% or more and less than 70%); Herbicidal effect on B: Japanese bulrush (grade 0-5) ([2]; 246 g/ha applied herbicide): 4 (Herbicidal rate of 70% or more and less than 90%); effect on barnyard grass (H) ([3]; 246 g/ha): 5 (Herbicidal rate of 90% or more (almost completely withered)); N: redroot pigweed, herbicidal effect rating ([4]; AAH 246 g/ha): 4 (Herbicidal rate of 70% or more and less than 90%); P: chickweed, herbicidal effect rating ([5]; AAH 246 g/ha): 0 (Herbicidal rate of 5% or less (almost no effect)); effect on windgrass (L) ([6]; 246 g/ha): 4 (Herbicidal rate of 70% or more and less than 90%); effect on southern crabgrass (F) ([7]; 246 g/ha): 4 (Herbicidal rate of 70% or more and less than 90%); I: wild oat, herbicidal effect rating ([8]; AAH 246 g/ha): 0 (Herbicidal rate of 5% or less (almost no effect)); Herbicidal effect on C: oval-leafed pondweed (grade 0-5) ([9]; 246 g/ha applied herbicide): 4 (Herbicidal rate of 70% or more and less than 90%); G: green foxtail, herbicidal effect rating ([10]; AAH 246 g/ha): 2 (Herbicidal rate of 20% or more and less than 40%); herbicidal effect rating, C: oval-leafed pondweed ([11]; AAH 246 g/ha): 3 (Herbicidal rate of 40% or more and less than 70%); H: barnyard grass, herbicidal effect rating ([12]; AAH 246 g/ha): 3 (Herbicidal rate of 40% or more and less than 70%); effect on green foxtail (G) ([13]; 246 g/ha): 5 (Herbicidal rate of 90% or more (almost completely withered)); effect on persian speedwell (R) ([14]; 246 g/ha): 5 (Herbicidal rate of 90% or more (almost completely withered)); herbicidal effect rating, B: Japanese bulrush ([15]; AAH 246 g/ha): 3 (Herbicidal rate of 40% or more and less than 70%)
CSCCSCc1ccc(-c2sc3ccccc3c2-c2c(O)c(C)nn(C)c2=O)cc1 [1-253]	0 (Herbicidal rate of 5% or less (almost no effect))	3 (Herbicidal rate of 40% or more and less than 70%)	5 (Herbicidal rate of 90% or more (almost completely withered))	0 (Herbicidal rate of 5% or less (almost no effect))	1 (Herbicidal rate of 5% or more and less than 20%)	0 (Herbicidal rate of 5% or less (almost no effect))	0 (Herbicidal rate of 5% or less (almost no effect))	3 (Herbicidal rate of 40% or more and less than 70%)	5 (Herbicidal rate of 90% or more (almost completely withered))	0 (Herbicidal rate of 5% or less (almost no effect))						N: redroot pigweed, herbicidal effect rating ([4]; AAH 320 g/ha): 3 (Herbicidal rate of 40% or more and less than 70%); P: chickweed, herbicidal effect rating ([5]; AAH 320 g/ha): 3 (Herbicidal rate of 40% or more and less than 70%); I: wild oat, herbicidal effect rating ([8]; AAH 320 g/ha): 0 (Herbicidal rate of 5% or less (almost no effect)); G: green foxtail, herbicidal effect rating ([10]; AAH 320 g/ha): 0 (Herbicidal rate of 5% or less (almost no effect)); H: barnyard grass, herbicidal effect rating ([12]; AAH 320 g/ha): 0 (Herbicidal rate of 5% or less (almost no effect))
Cc1ccc(-c2sc3ccc(F)cc3c2-c2c(O)c(C)nn(C)c2=O)cc1 [2-012]	0 (Herbicidal rate of 5% or less (almost no effect))	0 (Herbicidal rate of 5% or less (almost no effect))	4 (Herbicidal rate of 70% or more and less than 90%)	4 (Herbicidal rate of 70% or more and less than 90%)	5 (Herbicidal rate of 90% or more (almost completely withered))	0 (Herbicidal rate of 5% or less (almost no effect))	0 (Herbicidal rate of 5% or less (almost no effect))	5 (Herbicidal rate of 90% or more (almost completely withered))	5 (Herbicidal rate of 90% or more (almost completely withered))	3 (Herbicidal rate of 40% or more and less than 70%)	5 (Herbicidal rate of 90% or more (almost completely withered))	4 (Herbicidal rate of 70% or more and less than 90%)	0 (Herbicidal rate of 5% or less (almost no effect))	5 (Herbicidal rate of 90% or more (almost completely withered))	5 (Herbicidal rate of 90% or more (almost completely withered))	
CCCC(=O)Oc1c(C)nn(C)c(=O)c1-c1c(-c2ccc(C)cc2)sc2ccc(F)cc12 [2-013]	0 (Herbicidal rate of 5% or less (almost no effect))	2 (Herbicidal rate of 20% or more and less than 40%)	5 (Herbicidal rate of 90% or more (almost completely withered))	3 (Herbicidal rate of 40% or more and less than 70%)	5 (Herbicidal rate of 90% or more (almost completely withered))	2 (Herbicidal rate of 20% or more and less than 40%)	3 (Herbicidal rate of 40% or more and less than 70%)	5 (Herbicidal rate of 90% or more (almost completely withered))	5 (Herbicidal rate of 90% or more (almost completely withered))	2 (Herbicidal rate of 20% or more and less than 40%)	4 (Herbicidal rate of 70% or more and less than 90%)	3 (Herbicidal rate of 40% or more and less than 70%)	0 (Herbicidal rate of 5% or less (almost no effect))	5 (Herbicidal rate of 90% or more (almost completely withered))	4 (Herbicidal rate of 70% or more and less than 90%)	
COc1ccc(-c2sc3ccc(F)cc3c2-c2c(O)c(C)nn(C)c2=O)cc1 [2-026]	5 (Herbicidal rate of 90% or more (almost completely withered))	4 (Herbicidal rate of 70% or more and less than 90%)	5 (Herbicidal rate of 90% or more (almost completely withered))	4 (Herbicidal rate of 70% or more and less than 90%)	5 (Herbicidal rate of 90% or more (almost completely withered))	4 (Herbicidal rate of 70% or more and less than 90%)	5 (Herbicidal rate of 90% or more (almost completely withered))	4 (Herbicidal rate of 70% or more and less than 90%)	5 (Herbicidal rate of 90% or more (almost completely withered))	4 (Herbicidal rate of 70% or more and less than 90%)	5 (Herbicidal rate of 90% or more (almost completely withered))	4 (Herbicidal rate of 70% or more and less than 90%)	3 (Herbicidal rate of 40% or more and less than 70%)	3 (Herbicidal rate of 40% or more and less than 70%)	4 (Herbicidal rate of 70% or more and less than 90%)	
